Data taken from ChEMBL document CHEMBL1133821, “Synthesis and antiinflammatory, analgesic activity of 3,3'-(1,2-ethanediyl)-bis[2-aryl-4-thiazolidinone] chiral compounds. Part 10” (Bioorg Med Chem Lett, 2001).

Tests used:
[1] = Peroral dose causing 50% death of the mice population; format: ADME, organism-based; conditions: mouse, in vivo, po
Rattus norvegicus [2] = assay: Animals with Ulcers in Carrageenan-induced paw edema test at a dose of 100 mg/kg perorally in rats; format: functional; conditions: route oral
Rattus norvegicus [3] = assay: Reaction time in Hot plate test at a dose of 100 mg/kg perorally in rats after 120 min; format: functional; conditions: route oral
Rattus norvegicus [4] = assay: Number of writhings in Acetic acid Writhing test at a dose of 100 mg/kg perorally in rats; format: functional; conditions: route oral
Rattus norvegicus [5] = assay: Reaction time in Hot plate test at a dose of 100 mg/kg perorally in rats after 60 min (p<0.05); format: functional; conditions: route oral
Rattus norvegicus [6] = assay: Percent Edema variation in Carrageenan-induced paw edema test at a dose of 100 mg/kg perorally in rats after 120 min; format: functional; conditions: route oral
Rattus norvegicus [7] = assay: Percent Edema variation in Carrageenan-induced paw edema test at a dose of 100 mg/kg perorally in rats after 180 min; format: functional; conditions: route oral
Rattus norvegicus [8] = assay: Percent Edema variation in Carrageenan-induced paw edema test at a dose of 100 mg/kg perorally in rats after 60 min; format: functional; conditions: route oral
[9] = Minimum concentration which causes 50% of the Artemia salina larvae to lose mobility; format: ADME, organism-based; conditions: in vivo
Rattus norvegicus [10] = assay: Analgesic activity was determined using acetic acid writing test at a dose of 100 mg/kg perorally in rats.(p<0.01); format: functional; conditions: route oral
Rattus norvegicus [11] = assay: Reaction time in Hot plate test at a dose of 100 mg/kg perorally in rats after 180 min; format: functional; conditions: route oral
Rattus norvegicus [12] = assay: Animals with Hyperemia in Carrageenan-induced paw edema test at a dose of 100 mg/kg perorally in rats; format: functional; conditions: route oral
Rattus norvegicus [13] = assay: Reaction time in Hot plate test at a dose of 100 mg/kg perorally in rats after 120 min (p<0.05); format: functional; conditions: route oral
Rattus norvegicus [14] = assay: Reaction time in Hot plate test at a dose of 100 mg/kg perorally in rats after 180 min (p<0.05); format: functional; conditions: route oral
Rattus norvegicus [15] = assay: Percent Edema variation in Carrageenan-induced paw edema test at a dose of 100 mg/kg perorally in rats after 60 min (p<0.01); format: functional; conditions: route oral
Rattus norvegicus [16] = assay: Reaction time in Hot plate test at a dose of 100 mg/kg perorally in rats after 60 min; format: functional; conditions: route oral
Rattus norvegicus [17] = assay: Percent Edema variation in Carrageenan-induced paw edema test at a dose of 100 mg/kg perorally in rats after 180 min (p<0.001); format: functional; conditions: route oral
Rattus norvegicus [18] = assay: Analgesic activity was determined using acetic acid writing test at a dose of 100 mg/kg perorally in rats.(p<0.05); format: functional; conditions: route oral
Rattus norvegicus [19] = assay: Percent Edema variation in Carrageenan-induced paw edema test at a dose of 50 mg/kg perorally in rats after 120 min (p<0.01); format: functional; conditions: route oral
[20] = Animals with Ulcers in Carrageenan-induced paw edema test at a dose of 25 mg/kg perorally in rats; format: functional; conditions: route oral
Rattus norvegicus [21] = assay: Reaction time in Hot plate test at a dose of 100 mg/kg perorally in rats after 180 min (p<0.001); format: functional; conditions: route oral
Rattus norvegicus [22] = assay: Analgesic activity was determined using acetic acid writing test at a dose of 100 mg/kg perorally in rats. (p<0.01); format: functional; conditions: route oral
[23] = Animals with Hyperemia in Carrageenan-induced paw edema test at a dose of 25 mg/kg perorally in rats; format: functional; conditions: route oral
Rattus norvegicus [24] = assay: Percent Edema variation in Carrageenan-induced paw edema test at a dose of 25 mg/kg perorally in rats after 60 min (p<0.01); format: functional; conditions: route oral
Rattus norvegicus [25] = assay: Percent Edema variation in Carrageenan-induced paw edema test at a dose of 25 mg/kg perorally in rats after 180 min (p<0.01); format: functional; conditions: route oral
Rattus norvegicus [26] = assay: Percent Edema variation in Carrageenan-induced paw edema test at a dose of 100 mg/kg perorally in rats after 180 min (p<0.01); format: functional; conditions: route oral
[27] = Animals with Hyperemia in Carrageenan-induced paw edema test at a dose of 50 mg/kg perorally in rats; format: functional; conditions: route oral
Rattus norvegicus [28] = assay: Percent Edema variation in Carrageenan-induced paw edema test at a dose of 100 mg/kg perorally in rats after 120 min (p<0.001); format: functional; conditions: route oral
Rattus norvegicus [29] = assay: Percent Edema variation in Carrageenan-induced paw edema test at a dose of 25 mg/kg perorally in rats after 120 min (p<0.01); format: functional; conditions: route oral
Rattus norvegicus [30] = assay: Reaction time in Hot plate test at a dose of 100 mg/kg perorally in rats after 60 min (p<0.01); format: functional; conditions: route oral
Rattus norvegicus [31] = assay: Percent Edema variation in Carrageenan-induced paw edema test at a dose of 50 mg/kg perorally in rats after 60 min (p<0.01); format: functional; conditions: route oral
Rattus norvegicus [32] = assay: Reaction time in Hot plate test at a dose of 100 mg/kg perorally in rats after 120 min (p<0.01); format: functional; conditions: route oral
Rattus norvegicus [33] = assay: Percent Edema variation in Carrageenan-induced paw edema test at a dose of 50 mg/kg perorally in rats after 180 min (p<0.01); format: functional; conditions: route oral
[34] = Animals with Ulcers in Carrageenan-induced paw edema test at a dose of 50 mg/kg perorally in rats; format: functional; conditions: route oral
Rattus norvegicus [35] = assay: Percent Edema variation in Carrageenan-induced paw edema test at a dose of 100 mg/kg perorally in rats after 60 min (p<0.001); format: functional; conditions: route oral
Rattus norvegicus [36] = assay: Analgesic activity was determined using acetic acid writing test at a dose of 100 mg/kg perorally in rats.; format: functional; conditions: route oral

| SMILES | LD50 [1] [mg/kg] | Animals (Rattus norvegicus [2]) [%] | No. of writhings (Rattus norvegicus [4]) | Reaction time (Rattus norvegicus [5]) [s] | Edema variation (Rattus norvegicus [6]) [%] | Edema variation (Rattus norvegicus [7]) [%] | Edema variation (Rattus norvegicus [8]) [%] | LC50 [9] [µg/mL] | Animals (Rattus norvegicus [12]) [%] | other results |
| --- | --- | --- | --- | --- | --- | --- | --- | --- | --- | --- |
| COc1ccc([C@H]2SCC(=O)N2CCN2C(=O)CS[C@H]2c2ccc(OC)c(F)c2)cc1F | > 1000 | 40 | 10.2 | 16.1 | 25.12 | 30.11 | 22.13 | > 1000 | 20 | Reaction time (Rattus norvegicus [3]): 12.3 s; inhibition in vivo at 100 mg/kg (Rattus norvegicus [10]): 50%; Reaction time (Rattus norvegicus [11]): 12.5 s |
| O=C1CS[C@H](c2ccc(Cl)c(Cl)c2)N1CCN1C(=O)CS[C@H]1c1ccc(Cl)c(Cl)c1 | > 1000 | 0 | 4.6 | 18.7 | -61.1 | -61.2 | -61.12 | > 1000 | 40 | Reaction time (Rattus norvegicus [13]): 22.5 s; Reaction time (Rattus norvegicus [14]): 22.9 s; inhibition in vivo at 100 mg/kg (Rattus norvegicus [10]): 77% |
| O=C1CSC(c2cccc([N+](=O)[O-])c2)N1CCN1C(=O)CSC1c1cccc([N+](=O)[O-])c1 (centres undefined) | > 1000 | 0 |  |  | -0.31 | 23.43 |  | > 1000 | 40 | Edema variation (Rattus norvegicus [15]): -35.52% |
| COc1ccc(C2SCC(=O)N2CCN2C(=O)CSC2c2ccc(OC)cc2)cc1 (centres undefined) | > 1000 | 0 | 15.8 |  | -26.62 |  | 39.52 | > 1000 | 20 | Reaction time (Rattus norvegicus [3]): 15.1 s; Reaction time (Rattus norvegicus [16]): 11.2 s; Edema variation (Rattus norvegicus [17]): -64.98%; inhibition in vivo at 100 mg/kg (Rattus norvegicus [18]): 22%; Reaction time (Rattus norvegicus [11]): 13.9 s |
| COc1ccc([C@H]2SCC(=O)N2CCN2C(=O)CS[C@H]2c2ccc(OC)c(OC)c2)cc1OC | > 1000 | 0 | 10 |  |  |  |  | > 1000 | 20 | Edema variation (Rattus norvegicus [19]): -59.49%; Animals [20]: 0%; Reaction time (Rattus norvegicus [21]): 36.4 s; inhibition in vivo at 100 mg/kg (Rattus norvegicus [22]): 51%; Animals [23]: 20%; Edema variation (Rattus norvegicus [24]): -38.33%; Edema variation (Rattus norvegicus [25]): -40.09%; Edema variation (Rattus norvegicus [26]): -58.01%; Animals [27]: 20%; Edema variation (Rattus norvegicus [28]): -62.33%; Edema variation (Rattus norvegicus [29]): -53.28%; Reaction time (Rattus norvegicus [30]): 26.6 s; Edema variation (Rattus norvegicus [31]): -53.62%; Reaction time (Rattus norvegicus [32]): 26.8 s; Edema variation (Rattus norvegicus [15]): -58.28%; Edema variation (Rattus norvegicus [33]): -44.26%; Animals [34]: 0% |
| O=C1CS[C@H](c2cccc([N+](=O)[O-])c2)N1CCN1C(=O)CS[C@H]1c1cccc([N+](=O)[O-])c1 | > 1000 | 0 | 17.8 | 17.1 |  |  |  | > 1000 | 40 | Edema variation (Rattus norvegicus [28]): -67.3%; Reaction time (Rattus norvegicus [13]): 19.4 s; Reaction time (Rattus norvegicus [14]): 22 s; Edema variation (Rattus norvegicus [35]): -83.3%; Edema variation (Rattus norvegicus [17]): 21.11%; inhibition in vivo at 100 mg/kg (Rattus norvegicus [36]): 13% |
| Cc1cccc(C2SCC(=O)N2CCN2C(=O)CSC2c2cccc(C)c2)c1 (centres undefined) | > 1000 | 0 |  |  | -0.13 | -23.6 | 43.41 | > 1000 | 20 |  |
